“Also recorded” adds a separate entry of the source.
What was measured:
Jurkat cells = assay: Flow cytometry time course of uptake (Example 12); assay type: cell-based, human; conditions: 200 nM
Method: FIG. 12: Time course of uptake for compounds 124, 126, and 132 at 200 nM after 5, 30 or 60 minute incubation with Jurkat cells. Mean fluorescent intensities (MFI). 1,000 cells were sorted by FACS. Bars represent mean±SD. Results represents a single experiment done in triplicate.
Materials and methods: For this study, 7.7×10^5 Jurkat cells were centrifuged for 5 minutes at 2500 RPM. The supernatant was removed and the cells were diluted in RPMI media (supplemented with 1% FBS+1% penicillin-streptomycin) to 400 cells/μL. Next, 28 μL of 100 μM stock solutions from compound 124, 126, or 132 were diluted with 6972 μL of RPMI media (supplemented with 1% FBS+1% penicillin-streptomycin) to give a 400 nM solution. Following this, 250 μL of conjugate solutions (giving a 200 nM final concentration) and 250 μL of cell suspensions were then added to each well in a 96 well plate. In addition, 250 μL of media only was added to the DMSO control wells. Incubation was carried out for 5, 30 and 60 minutes at 37 °C in triplicate wells for each compound and time point.
After incubation, cells were centrifuged for 1.5 minutes at 5000 RCF. Supernatant was removed and the cell pellet re-suspended in 200 μL fresh RPMI media, transferred to 96 well-plate and each cell suspension analysed by flow cytometry. Flow cytometry results represent the mean of the fluorescence intensities (in arbitrary units) measured for cells sorted in every sample.

[1] = test system: melanoma tumours (NZM11 cells); assay: Whole body fluorescent cryo-imaging, tumour targeting (Example 13); assay type: in vivo, mouse; conditions: 0.7 mg/kg i.v., 1 hour post dosing
Method: Materials and methods: Compound 124 was supplied as a 10 mM stock solution in DMSO. NZM011 cells were grown in AMEM, 5% FBS, 5 μg/mL insulin, 5 μg/mL transferrin, 5 ng/mL sodium selenite at 37 °C with 5% O2, 90% N2 5% CO2. The study was performed in 6-week-old male NIH-III athymic mice (strain code 201). Work was carried out by Ichor Biosciences La Fayette NY, USA. Mice were injected on one flank with 5×10^6 NZM11 cells in a 50:50 matrigel:media suspension with a 22G needle. When tumours reach over 500 mm3 the mice were administered intravenously (tail vein) with a solution of compound 124 in phosphate buffered saline at a dose of 0.7 mg/kg. The mice were euthanized at 1 hour or 6 hours post dosing and frozen for cryoimaging. A control mouse received no tumour cells or compound 124 and was euthanized and frozen for cryoimaging at the same time as the treated mice.
Processed animals were cryoimaged imaged at BioInvision in Cleveland Ohio. Whole animal was sectioned at 40 microns and imaged using brightfield at fluorescent modes (503 nm). In-plane pixel size 10 microns. Mouse #1 with tumour on one flank at 500 mm3, treated with compound 124 (0.7 mg/kg) and euthanised 1 hour post treatment. Mouse #6 no tumour or compound 124 treatment euthanised on same day.

Compound: CC1=CC(C)=[N+]2C1=Cc1ccc(CCCn3cc(CCNC(=O)/C=C/NC(=O)[C@H](O)C(C)(C)CO)nn3)n1[B-]2(F)F [Compound 124]
- uptake, times higher than DMSO control (Jurkat cells; 5 minutes): 4 times
- uptake increase compared to DMSO control (Jurkat cells; 30 minutes): ten
- uptake increase compared to DMSO control (Jurkat cells; 60 minutes): fourteen
- uptake, in words (Jurkat cells; 5, 30, 60 minutes): highest uptake at every timepoint; also recorded: selective uptake
- 124-specific fluorescence in tumour [1]: 124-specific fluorescence was also seen in the region of the implanted tumour and Specific 124-fluorescence was observed in the region of the tumour and specific green fluorescence from compound 124 was seen in the proximity of the tumour and specifically targeted and bound to tumour in vivo

Source: patent publication US20260364186A1, “Chemical Conjugates, Compositions, and Methods of Preparation and Use Thereof” (Transfection Holdings Limited, priority 2022, published 2026)
